Structures are written as SMILES.

Holding throughout (type): in vivo
Experiment [1] has as its system Alopecurus myosuroides (ALOMY). The experiment can be described thus: Pre-emergence herbicidal activity, glasshouse pot test. The conditions noted are these: 480 h, rate 250 g/ha, evaluated 20 days later, 100=total damage to plant, 0=no damage to plant. The procedure:
(§1) Monocotyledonous and dicotyledonous test plants were sown in standard soil in pots. After cultivation for one day (pre-emergence) or after 10 days cultivation (post-emergence) under controlled conditions in a glasshouse, the plants were sprayed with an aqueous spray solution derived from the formulation of the technical active ingredient in 0.6 ml acetone and 45 ml formulation solution containing 10.6% Emulsogen EL (Registry number 61791-12-6), 42.2% N-methylpyrrolidone, 42.2% dipropylene glycol monomethyl ether (Registry number 34590-94-8) and 0.2% X-77 (Registry number 11097-66-8). The test plants were then grown in a greenhouse under optimum conditions until, 15 days later for post-emergence and 20 days for pre-emergence, the test was evaluated (100=total damage to plant; 0=no damage to plant). Test Plants: Alopecurus myosuroides (ALOMY), Avena fatua (AVEFA), Lolium perenne (LOLPE), Setaria faberi (SETFA), Digitaria sanguinalis (DIGSA), Echinochloa crus-galli (ECHCG)

In experiment [2] the test system is Avena fatua (AVEFA). The description is as above. The conditions noted are these: 480 h, rate 250 g/ha, evaluated 20 days later, 100=total damage to plant, 0=no damage to plant. The procedure:
as §1

Experiment [3] has as its system Digitaria sanguinalis (DIGSA). The experiment is described as above. The conditions noted are these: 480 h, rate 250 g/ha, evaluated 20 days later, 100=total damage to plant, 0=no damage to plant. The procedure: as §1
The test system of experiment [4] is Echinochloa crus-galli (ECHCG). Described as above. The conditions noted are these: 480 h, rate 250 g/ha, evaluated 20 days later, 100=total damage to plant, 0=no damage to plant. The procedure: as §1
In experiment [5] the test system is Lolium perenne (LOLPE). The experiment is described as above. The conditions noted are these: 480 h, rate 250 g/ha, evaluated 20 days later, 100=total damage to plant, 0=no damage to plant. The procedure: as §1
Experiment [6] relates to Setaria faberi (SETFA). The description is as above. The conditions noted are these: 480 h, rate 250 g/ha, evaluated 20 days later, 100=total damage to plant, 0=no damage to plant. The method, then:
as §1

Experiment [7] concerns Alopecurus myosuroides (ALOMY). Briefly: Post-emergence herbicidal activity, glasshouse pot test. The conditions noted are these: 360 h, rate 125 g/ha, evaluated 15 days later, 100=total damage to plant, 0=no damage to plant. The procedure:
as §1

Experiment [8] concerns Avena fatua (AVEFA). Described as above. The conditions noted are these: 360 h, rate 125 g/ha, evaluated 15 days later, 100=total damage to plant, 0=no damage to plant. The procedure: as §1
The subject of experiment [9] is Digitaria sanguinalis (DIGSA). Described as above. The conditions noted are these: 360 h, rate 125 g/ha, evaluated 15 days later, 100=total damage to plant, 0=no damage to plant. The method, then: as §1
Experiment [10] has as its system Echinochloa crus-galli (ECHCG). Described as above. The conditions noted are these: 360 h, rate 125 g/ha, evaluated 15 days later, 100=total damage to plant, 0=no damage to plant. The method, then:
as §1

For experiment [11], the system named is Lolium perenne (LOLPE). The description is as above. The conditions noted are these: 360 h, rate 125 g/ha, evaluated 15 days later, 100=total damage to plant, 0=no damage to plant. The method, then:
as §1

Experiment [12] relates to Setaria faberi (SETFA). The experiment is described as above. The conditions noted are these: 360 h, rate 125 g/ha, evaluated 15 days later, 100=total damage to plant, 0=no damage to plant. The procedure:
as §1

As for `CCc1ccc(-c2ccc(Cl)c(Cl)c2)cc1C1=C(O)[C@H]2[C@@H](C1=O)[C@@H]1CC[C@H]2O1` [Compound T14], the pest or weed control (in general, how far the test organism was held down) at 250 g/ha in experiment [1] is 10%; in experiment [2], 20%; in [3], 90%; in experiment [4], 90%; in [5], 40%; in [6], 100%. Further, the pest or weed control at 125 g/ha in experiment [7] was determined as 90%; in [8] it was 80%; in [9], 100%; in experiment [10], 100%; in experiment [11] it was 30%; in experiment [12], 100%.
`CCc1ccc(-c2ccc(Cl)c(F)c2Cl)cc1C1=C(O)[C@H]2[C@@H](C1=O)[C@]1(C)CC[C@@]2(C)O1` [Compound T37]: the pest or weed control at 250 g/ha in [1] amounted to 20%; in experiment [2], 30%; in experiment [3], 100%; in experiment [4] it was 80%; in experiment [5], 50%; in experiment [6] it was 80%. For the same compound, the pest or weed control at 125 g/ha was 90% in [7]; 100% in experiment [8]; 100% in experiment [9]; 100% in experiment [10]; 70% in experiment [11]; 100% in experiment [12].
As to `Cc1cc(-c2ccccc2)cc(C)c1C1C(=O)[C@@H]2[C@H](C1=O)[C@@]1(C)CC[C@]2(C)O1` (stereo partly drawn) [Compound T7], the pest or weed control at 250 g/ha in [1] was found to be 90%; in experiment [2], 40%; in experiment [3], 100%; in experiment [4], 100%; in experiment [5], 40%; in experiment [6] it was 100%. Besides, the pest or weed control at 125 g/ha is 70% in experiment [7]; 60% in [8]; 80% in experiment [9]; 100% in [10]; 60% in [11]; 90% in experiment [12].
`CCc1ccc(-c2ccc(Cl)cc2Cl)cc1C1=C(O)[C@H]2[C@@H](C1=O)[C@]1(C)CC[C@@]2(C)O1` [Compound T24]: the pest or weed control at 250 g/ha is 10% in [1]; 30% in experiment [2]; 100% in experiment [3]; 100% in experiment [4]; 30% in experiment [5]; 100% in experiment [6]. The pest or weed control at 125 g/ha in [7] amounted to 90%; in experiment [8], 90%; in experiment [9] it was 100%; in experiment [10], 100%; in experiment [11], 60%; in experiment [12], 100%.
On to `CCc1ccc(-c2ccc(Cl)s2)cc1C1=C(O)[C@H]2[C@@H](C1=O)[C@@H]1CC[C@H]2O1` [Compound T18], for which the pest or weed control at 250 g/ha in [1] came out at 50%; in experiment [2] it was 20%; in experiment [3], 100%; in experiment [4], 90%; in [5], 80%; in experiment [6], 90%. Besides, the pest or weed control at 125 g/ha stood at 100% in experiment [7]; 100% in experiment [8]; 100% in experiment [9]; 100% in experiment [10]; 70% in [11]; 100% in [12].
As for `CC(=O)OC1=C(c2c(C)cc(-c3ccccc3)cc2C)C(=O)[C@@H]2[C@H]1[C@H]1CC[C@@H]2O1` [Compound P3], the pest or weed control at 250 g/ha stood at 100% in [1]; 60% in experiment [2]; 100% in [3]; 80% in [4]; 100% in experiment [5]; 100% in [6]. For the same compound, the pest or weed control at 125 g/ha came to 100% in experiment [7]; 80% in experiment [8]; 80% in experiment [9]; 100% in experiment [10]; 100% in [11]; 90% in [12].
With `CCc1ccc(-c2ccc(Cl)c(OC)c2)cc1C1=C(O)[C@H]2[C@@H](C1=O)[C@@H]1CC[C@H]2O1` [Compound T15], the pest or weed control at 250 g/ha in experiment [1] came to 20%; in [2], 10%; in [3], 90%; in [4], 100%; in experiment [5] it was 20%; in [6], 80%. The pest or weed control at 125 g/ha in [7] amounted to 100%; in experiment [8], 90%; in [9] it was 100%; in experiment [10], 100%; in experiment [11], 40%; in experiment [12], 100%.
For `CCc1ccc(-c2ccc(Cl)cc2C)cc1C1=C(O)[C@H]2[C@@H](C1=O)[C@]1(C)CC[C@@]2(C)O1` [Compound T28], the pest or weed control at 250 g/ha in experiment [1] was found to be 0%; in experiment [2], 30%; in experiment [3], 30%; in experiment [4] it was 0%; in experiment [5], 40%; in experiment [6] it was 20%. Also, the pest or weed control at 125 g/ha in [7] worked out at 90%; in experiment [8], 90%; in experiment [9], 70%; in experiment [10], 100%; in [11], 50%; in experiment [12], 100%.
For `CCc1ccc(-c2ccc(Cl)nc2Cl)cc1C1=C(O)[C@H]2[C@@H](C1=O)[C@@H]1CC[C@H]2O1` [Compound T21], the pest or weed control at 250 g/ha in experiment [1] turned out to be 50%; in experiment [2] it was 50%; in experiment [3], 90%; in experiment [4], 100%; in experiment [5] it was 60%; in experiment [6], 100%. Further, the pest or weed control at 125 g/ha came out at 80% in experiment [7]; 80% in [8]; 100% in experiment [9]; 100% in [10]; 40% in experiment [11]; 90% in experiment [12].
`CCc1ccc(-c2ccc(Cl)cc2)cc1C1=C(O)[C@H]2[C@@H](C1=O)[C@]1(C)C=C[C@@]2(C)O1` [Compound T12]: the pest or weed control at 250 g/ha in experiment [1] was 70%; in [2], 20%; in experiment [3] it was 100%; in experiment [4], 90%; in experiment [5], 60%; in experiment [6] it was 100%. The pest or weed control at 125 g/ha in [7] turned out to be 100%; in experiment [8], 100%; in experiment [9], 100%; in experiment [10], 100%; in experiment [11] it was 80%; in experiment [12], 100%.
In the case of `CCc1cc(-c2ccc(C)cc2)cc(CC)c1C1=C(OC(C)=O)[C@H]2[C@@H](C1=O)[C@@H]1CC[C@H]2O1` [Compound P9], the pest or weed control at 250 g/ha in experiment [1] turned out to be 50%; in experiment [2] it was 60%; in [3], 40%; in experiment [4], 100%; in experiment [5], 70%; in [6], 60%. Further, the pest or weed control at 125 g/ha in experiment [7] came out at 80%; in experiment [8] it was 80%; in [9], 100%; in [10] it was 100%; in experiment [11] it was 80%; in [12] it was 90%.

The values above are taken from patent publication US8940913B2, “Herbicides” (Syngenta Crop Protection, LLC, priority 2007, dated 2015).
